Patent US8062996B2, “Plant glutamate receptors” (priority 1995, dated 2011)

Tests used:
[1] = tested on: ASN1 mRNA; experiment: ASN1 mRNA levels by Northern blot (relief of sucrose repression); type: in vivo, Arabidopsis; conditions: for relief of sucrose repression of ASN1 mRNA: 3% sucrose, dark 2 d; for induction of ASN1 mRNA: average of two Northern blot experiments, densitometry
Procedure: FIG. 12A. Arabidopsis seeds were grown on plates containing MS medium plates 3% (w/v) Suc under 16-h light/8-h dark cycle for 2-3 weeks. The plants were then transferred to media described below and grown in complete darkness for 2d. All samples containing 3% sucrose except for lane 2. MS was supplemented with kainate (lane 4:0.3 mM and lane 5: 0.03 mM), 0.05% (w/v) glutamate (lanes 6 and 7), and 10 μM DNQX (lanes 7 and 8). The expression of ASN1 and a control gene were detected by northern analyses on duplicate blots (under high-stringency conditions in 50% [v/v] formamide-solution), 20 μg of total RNA was used for each lane.
FIG. 12B. Quantitation of the Northern blot results in (A) by densitometry scan.
FIG. 12C. Average folds of induction in two Northern blot experiments.
The ability of a iGluR agonist to mimic the glutamate-stimulated expression of nitrogen assimilatory genes in Arabidopsis was tested using low concentrations of agonist KA and monitoring ASN1 mRNA levels as a measure of gene induction by KA.
ASN1 mRNA accumulates to high levels specifically in dark-treated plants (FIG. 12A, lane 2), and is repressed by light (FIG. 12A, lane 1) or sucrose (FIG. 12A, lane 3). […] ASN1 mRNA levels are determined by Northern blot analysis.

[2] = tested on: Arabidopsis; experiment: Germination of Arabidopsis in the dark; type: in vivo
Excerpt: FIG. 23. Effects of kainate of germination of Arabidopsis in the dark.
Kainate inhibition of germination in the dark is reversed by glutamate. Plants germinated in the dark on “normal” MS media (MS) as a positive control. Kainate, the iGluR agonist, causes a specific inhibition of germination of plants grown in MS media containing KA. The inhibition of germination by KA is reversed by the addition of glutamate to the media (MS+KA+Glu) (FIG. 23). Germination involves a light signal. Dark-grown seedlings are sown in the light and transferred to the dark. […] High doses of KA an agonist of iGluR in animals functions as a neurotoxin.
The effects of kainate on germination of Arabidopsis in the dark was determined.

[3] = tested on: Arabidopsis wild-type seedlings; experiment: Survival of wild-type seedlings on high-dose kainate; type: in vivo; conditions: 12 mM kainate
Procedure: FIGS. 28A and 28B. Selection of Arabidopsis mutants resistant to the iGluR agonist Kainate. […] This is not unexpected as high doses of the iGluR agonist kainate function as a neurotoxin in animals. Arabidopsis mutants with putative defects in the KA binding site of iGluR were selected for the ability to grow in the presence of 12 mM kainate. […] Note the one KA-resistant plant is enlarged in FIG. 28B.
Arabidopsis mutants resistant to the iGluR agonist Kainate were selected. […] This is not unexpected as high doses of the iGluR agonist kainate function as a neurotoxin in animals. Arabidopsis mutants with putative defects in the KA binding site of iGluR were selected by selecting for mutants able to grow in the presence of 12 mM kainate. The ems mutagenized Arabidopsis M2 seedlings were sown on 12 mM kainate. Note the one KA-resistant plant is enlarged in FIG. 28B.

[4] = tested on: Arabidopsis; experiment: Plant growth assay: root length on vertical tissue culture plates; type: in vivo
Procedure: Arabidopsis seeds were grown on MS+3% sucrose vertical tissue culture plates containing various amounts of kainate (FIG. 11A) or DNQX (FIG. 11B), with (white bars) or without (black bars) glutamate supplementation. The effects of each drug on plant growth were assayed by measuring root length after two week. The results were discussed in text.
The following assay may be utilized in order to screen drugs for their effects on plant growth mediated by the GluR. Arabidopsis seedlings expressing or overexpressing the GluR are treated with the potential agonist or antagonist. In this plant growth assay, Arabidopsis seeds are plated on tissue culture plates in MS Medium (Murashige and Skoog Salt Mixture-plant basic medium available from Gibco (BRL)). A dose-response curve is determined using various concentrations of the potential agonist or antagonist added to the medium. The plants are grown vertically in a growth chamber at 22° C. with a 16 hour light/8 hour dark cycle for two weeks. The effects of each herbicide on plant growth is assessed by measuring root length on vertical tissue culture plates.
A dose-response curve using various concentrations of KA or DNQX was performed and the effects of each drug on plant growth was determined by measuring root length on vertical tissue culture plates (see FIG. 11).

Row | Compound | relief of sucrose repression of ASN1 mRNA ([1]; 0.05% (w/v) glutamate) | induction of ASN1 mRNA [1] | germination of dark-grown seedlings ([2]; kainate 200-400 uM) | inhibition of germination with glutamate supplementation ([2]; kainate plus glutamate in growth media) | relief of sucrose repression of ASN1 mRNA ([1]; KA 300 uM and 30 μM) | lethality to wild-type seedlings [3] | root growth ([4]; high concentrations of agonist or antagonist, without glutamate) | effect of high doses on root growth with glutamate supplementation ([4]; high doses plus glutamate) | effect on plant growth (root length) ([4]; low concentrations, 0 to 0.3 mM KA, two weeks)
1 | N[C@@H](CCC(=O)O)C(=O)O [glutamate] | able to partially relieve this sucrose repression | roughly 2 fold |  |  |  |  |  |  | 
2 | C=C(C)[C@H]1CN[C@H](C(=O)O)[C@H]1CC(=O)O [KA, kainic acid] |  | roughly 2 fold | significant inhibition of germination | specifically reversed by the supplementation of glutamate | able to relieve the sucrose repression of ASN1 mRNA | kill wild-type seedlings | reduction in root growth | at least partially reversed by glutamate supplementation | no adverse effects on plant growth
